Experiments:
K562 = experiment: Antiproliferative activity against K562 cells; format: functional, cell-based; conditions: Homo sapiens
U-937 = experiment: Antiproliferative activity against U937 cells; format: functional, cell-based; conditions: Homo sapiens

SMILES	IC50 (K562)	IC50 (U-937)
Cc1ccc(NC(=O)c2ccc(CN3CC(N(C)C)C3)c(C(F)(F)F)c2)cc1Nc1nccc(-c2cncnc2)n1	0.017 µM	> 100 µM
Cc1ccc(NC(=O)c2ccc(CN3CCN(C)CC3)c(C(F)(F)F)c2)cc1Nc1nccc(-c2cncnc2)n1		5 µM
Cc1ccc(NC(=O)c2ccc(CN3CCN(C)CC3)c(C(F)(F)F)c2)cc1Nc1nccc(-c2cccnc2)n1		4 µM
Cc1ccc(NC(=O)c2ccc(CN3CC[C@@H](CN(C)C)C3)c(C(F)(F)F)c2)cc1Nc1nccc(-c2cncnc2)n1	0.009 µM	> 100 µM
Cc1ccc(NC(=O)c2ccc(CN3CCN(C)CC3)c(Cl)c2)cc1Nc1nccc(-c2cccnc2)n1	0.01 µM	9 µM

Now from value to compound:

IC50 (K562)	IC50 (U-937)	SMILES
0.011 µM	10 µM	Cc1ccc(NC(=O)c2ccc(CN3CC[C@H](N(C)C)C3)c(C(F)(F)F)c2)cc1Nc1nccc(-c2cncnc2)n1 [BAFETINIB]
0.01 µM	6 µM	Cc1ccc(NC(=O)c2ccc(CN3CCN(C)CC3)c(I)c2)cc1Nc1nccc(-c2cccnc2)n1
0.011 µM	20 µM	Cc1ccc(NC(=O)c2ccc(CN3CC[C@H](CN(C)C)C3)c(C(F)(F)F)c2)cc1Nc1nccc(-c2cncnc2)n1
0.004 µM	9 µM	Cc1ccc(NC(=O)c2ccc(CN3CC[C@@H](N(C)C)C3)c(C(F)(F)F)c2)cc1Nc1nccc(-c2cncnc2)n1
	8 µM	Cc1ccc(NC(=O)c2ccc(CN3CCN(C)CC3)c(F)c2)cc1Nc1nccc(-c2cccnc2)n1
	14 µM	Cc1ccc(NC(=O)c2ccc(CN3CCN(C)CC3)cc2)cc1Nc1nccc(-c2cccnc2)n1 [IMATINIB]
	5 µM	Cc1ccc(NC(=O)c2ccc(CN3CCN(C)CC3)c(Br)c2)cc1Nc1nccc(-c2cccnc2)n1
